From patent US7544700B2, “Pharmaceutically active sulfonamide derivatives bearing both lipophilic and ionisable moieties as inhibitors of protein JunKinases” (Laboratoires Serono SA, priority 2000, dated 2009) come the findings set out here.

The target in one data set is GST-JNK3 (Homo sapiens, UniProt P53779). The experiment in a line: JNK3 in vitro assay (33P incorporation into c-jun, SPA). Format: biochemical. The protocol:
(§1) The phosphorylation of c-jun by JNK2 or JNK3 may be followed by monitoring the incorporation of ^33P into c-jun following the protocol below. The inhibitory activity of the compounds according to formula I, in respect of c-jun phosphorylation through JNK, is determined by calculating the phosphorylation activity of a JNK in the presence or absence of the test compounds according to formula I.
(§2) JNK3 and/or -2 assays are performed in 96 well NM plates: incubation of 0.5 μg of recombinant, pre-activated GST-JNK3 or GST-JNK2 with 1 μg of recombinant, biotinylated GST-c-Jun and 2 μM ^33γ-ATP (2 nCi/μl), in the presence or absence of compounds according to formula I and in a reaction volume of 50 μl containing 50 mM Tris-HCl, pH 8.0; 10 mM MgCl2; 1 mM Dithiothreitol, and 100 μM NaVO4. The incubation is performed for 120 min. at R.T and stopped upon addition of 200 μl of a solution containing 250 μg of Streptavidine-coated SPA beads (Amersham, Inc.)*, 5 mM EDTA, 0.1% Triton X-100 and 50 μM ATP, in phosphate saline buffer. After incubation for 60 minutes at RT, beads are sedimented by centrifugation at 1500×g for 5 minutes, resuspended in 200 μl of PBS containing 5 mM EDTA, 0.1% Triton X-100 and 50 μM ATP and the radioactivity measured in a scintillation β counter, following sedimentation of the beads as described above. By replacing biotinylated GST-c Jun with biotinylated GST-1ATF2 or biotinylated myelin basic protein, this assay may also be used to measure inhibition of pre-activated p38 and ERK MAP Kinases, respectively.

The next data set deals with GST-JNK2 (Homo sapiens, UniProt P45984). Description: JNK2 in vitro assay (33P incorporation into c-jun, SPA). It is filed as biochemical. The protocol:
as §1, §2

The target of a further data set is JNK1 (Homo sapiens, UniProt P45983). The experiment in a line: JNK1 inhibition. Format: biochemical. The conditions noted are these: read-out: inhibition (IC50) with regard to JNK1.
Chain of JNK1 (P45983 whole entry, species assumed): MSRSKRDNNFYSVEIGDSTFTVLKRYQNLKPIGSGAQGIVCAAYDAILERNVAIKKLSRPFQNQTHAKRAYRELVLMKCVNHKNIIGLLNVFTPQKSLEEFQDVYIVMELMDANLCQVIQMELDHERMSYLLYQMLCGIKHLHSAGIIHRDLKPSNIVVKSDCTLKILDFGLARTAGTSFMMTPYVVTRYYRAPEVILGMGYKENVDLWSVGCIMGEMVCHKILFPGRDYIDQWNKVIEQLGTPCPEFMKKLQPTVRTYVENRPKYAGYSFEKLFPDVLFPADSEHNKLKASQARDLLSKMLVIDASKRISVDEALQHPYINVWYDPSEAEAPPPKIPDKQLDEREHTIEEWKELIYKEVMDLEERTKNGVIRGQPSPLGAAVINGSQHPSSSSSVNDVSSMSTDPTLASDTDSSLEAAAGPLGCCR
Data set [1] has as its system Sympathetic neurons from superior cervical ganglia (SCG). Description: Sympathetic neuron culture and survival assay. As to conditions: at 3 μM; anti NGF antibody induced cell death, MTT after 24 hours. It is filed as cell-based, rat. The method, then:
The Ability of the Compounds According to Formula I to Increase the Survival Rate of Neuronal Cells Having Been Induced to Cell Death was Assessed Using the Following Protocol
Cell death is induced at day 4 after plating by exposing the culture to medium containing 10 μg/mL of anti NGF anti-body (Boehringer Mannheim Corp., Indianapolis, Ind.) and no NGF or arabinosine, in the presence or absence of sulfonamide inhibitors. 24 hours after cell death induction, determination of cell viability is performed by incubation of the culture for 1 hour, at 37° C. in 0.5 mg/mL of 3-(4,5-dimethylthiazol-2-yl)-2,5 diphenyl tetrazolium bromide (MTT). After incubation in MTT cells are resuspended in DMSO, transferred to a 96 MTT plate and cell viability is evaluated by measuring optical density at 590 nm.

The next data set relates to Male C57BL/6 mice. The experiment in a line: LPS induced endotoxin shock in mice. It is filed as in vivo. The conditions noted are these: intravenously 15 min before LPS challenge. The protocol: Endotoxins are the lipopolysaccharides (LPS) constituents of the outer membrane of Gram negative bacteria. […] As LPS is known to stimulate the activation of various MAP kinase pathways, including JNK (35), the ability of JNK inhibitors can be tested after the JNK signaling pathway has been switched on by a LPS challenge.
LPS (S. abortus-Galanos Lab.-) is injected (200 μg/kg, i.v.) to Male C57BL/6 mice to induce endotoxin shock. Compounds according to formula I (0.1, 1, 10 mg/kg) or NaCl ([…]) are injected intravenously (10 mL/kg) 15 min before the LPS challenge. Heparinized blood was obtained from the orbital sinus at different time points after the LPS challenge, and the blood was centrifuged at 9'000 rpm for 10 min at 4° C. to collect supernatent. Measurement of cytokines production such as TNFα and IFNγ by mouse is performed with an ELISA kit such as Duoset® DY410 for TNFα and DY 485 for IFN γ. Other ELISA assays such as described in (36) can be used.

The next data set can be described thus: Solubility in water. It is filed as physicochemical. The conditions noted are these: pH 7.4, aqueous buffer, pH of 7.4 at room temperature. The protocol: The compounds have been assessed in respect of their solubility in water, at a pH of 7.4 at room temperature. In general the solubility of compounds of formula (I) is in a range of at least 50 μg/mL solvent, more preferably of at least 100 μg/mL solvent. For instance compounds (63), (163), (198) display a solubility in water of at least 200 μg/mL solvent.

For data set [2], the system named is IL-2 release by (PMA+Ionomycin)-stimulated Jurkat cells. The experiment in a line: IL-2 release assay (IL-2 ELISA). It is filed as cell-based. The conditions noted are these: Homo sapiens; PMA + Ionomycine stimulated Jurkat cells. The method, then: The Ability of the Compounds According to Formula I to Modulate the Inflammatory Response by Inhibiting the Release of IL-2 was Assessed Using the Following Protocol
JNK pathway activation triggers the production of inflammatory cytokines such as IL-2. JNK can be activated by external stimuli such as PMA and Ionomycine and IL-2 production can be measured via an IL-2 ELISA test. Comparative measurements with and without the compounds of the invention according to the following protocol measure the ability of the compounds to prevent to stress-mediated IL-2 release.
Jurkat cells, a human T cell leukemia cell line (American Type Culture Collection # TIB 152) were cultured in RPMI 1640 medium (Gibco, BRL) supplemented with 10% of […] fetal calf serum (FCS), Glutamine and Penstrep. The cell suspension in the medium is diluted to give 2.10^6 cells/mL. The cells were plated (2.10^5 cells/well) on a 96-well plate containing different concentrations of a compound according to formula I (final concentration of compounds, 10, 3, 1, 0.3, 0.1 μM). This mixture is incubated 30 minutes at 37° C. in a humidified CO2 atmosphere. Cells were then treated with 10 μl PMA (Phorbolmyristate-13 Acetate-12)+Ionomycine (0.1 μM and 1 μM final concentration) in all wells except negative control. In wells without compounds, 10 μl of RPMI 2% DMSO (=0.1% final) is added. Cells are incubated 24 hours at 37° C. and then the supernatant harvested (freeze at −20° C. if not used the same day) prior to performing IL-2 ELISA test on the supernatant.
IL-2 release into the medium by (PMA+Iononomycin)-stimulated Jurkat cells, in presence or absence of test compounds may be assayed by ELISA. Following the procedure described below.
Monoclonal anti-human IL-2 antibody (MAB602) (capture), biotinylated anti-human IL-2 antibody (BAF202) (detection) and recombinant human IL-2 (202-IL-010) (standard) from From R&D Systems are used. […]
• 1. […] Optical density is measured using a microtiter plate reader set to 450 nm with correction at 570 nm.

Data set [3] deals with gerbil bilateral carotid occlusion. The experiment in a line: Global ischemia in gerbils. It is filed as in vivo. As to conditions: 80 mg/kg. The method, then:
The Ability of the JNK Inhibitors Described in Formula I to Protect Cell Death During a Stroke Event was Assessed Using the Following Protocol:
The gerbil bilateral carotid occlusion is a well-described animal model of acute ischemic stroke and involves relatively easy surgical techniques.
The neuronal degeneration in the hippocampus develops over several days and is often referred as “delayed neuronal death”. In addition, the neurodegeneration observed histologically is obvious and easily quantified (37). Furthermore, the histopathology seen in the gerbil is similar to that observed in the hippocampal CA1 region of the human brain following a cardiac arrest. Behavior observations, such as memory tests, could even be performed in the case of gerbils. This kind of tests for appreciation of the degree of recovery is not easily manageable in other models such as in rat whose learning abilities are much poorer (38).
• Anesthesia with isoflurane (0.5-4%). • The common carotid arteries (left and right) are freed from tissue. • Occlusion of the arteries using Bulldog microclamps during 5 min. • Removal of clamps (reperfusion) • Stabulation of the animals under heating lamp until awake. • Stabulation of the animals in the animalry in individual cages. Sacrifice of the Animals • 7 days after ischemia (Decapitation or overdose of pentobarbital). • Sampling of the brain. […]

Structures are written as SMILES. Counter-ions that a name gives are not always drawn.

Chain of GST-JNK2 (P45984 whole entry): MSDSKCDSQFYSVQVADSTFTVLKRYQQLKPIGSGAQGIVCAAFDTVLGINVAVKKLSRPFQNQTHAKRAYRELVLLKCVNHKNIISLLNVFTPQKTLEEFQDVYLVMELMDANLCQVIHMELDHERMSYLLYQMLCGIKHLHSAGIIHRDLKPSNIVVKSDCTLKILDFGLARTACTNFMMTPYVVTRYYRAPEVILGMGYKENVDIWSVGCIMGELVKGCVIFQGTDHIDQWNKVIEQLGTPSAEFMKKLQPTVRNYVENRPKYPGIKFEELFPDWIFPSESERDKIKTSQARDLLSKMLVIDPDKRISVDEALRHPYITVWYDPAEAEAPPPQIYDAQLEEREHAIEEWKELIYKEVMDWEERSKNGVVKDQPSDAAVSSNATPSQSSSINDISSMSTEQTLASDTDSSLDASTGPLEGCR
Chain of GST-JNK3 (P53779 whole entry): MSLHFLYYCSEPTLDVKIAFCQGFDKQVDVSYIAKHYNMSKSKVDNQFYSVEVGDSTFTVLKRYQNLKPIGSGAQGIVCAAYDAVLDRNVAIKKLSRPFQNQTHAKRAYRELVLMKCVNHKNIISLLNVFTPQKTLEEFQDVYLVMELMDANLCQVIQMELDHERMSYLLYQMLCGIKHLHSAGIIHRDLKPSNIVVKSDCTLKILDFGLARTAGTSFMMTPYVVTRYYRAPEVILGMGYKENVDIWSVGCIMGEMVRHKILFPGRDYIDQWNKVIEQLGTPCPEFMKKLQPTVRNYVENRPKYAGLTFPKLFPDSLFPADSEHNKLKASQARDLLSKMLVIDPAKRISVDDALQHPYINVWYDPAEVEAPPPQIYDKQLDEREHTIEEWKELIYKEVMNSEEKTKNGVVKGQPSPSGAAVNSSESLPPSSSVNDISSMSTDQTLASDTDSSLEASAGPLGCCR

For `O=C(NCc1ccc(S(=O)(=O)N2CCC(NCc3ccc(C(F)(F)F)cc3)CC2)s1)c1ccc[nH]c1=O` (as salt: HCl) [Example 198, 2-Oxo-N-({5-[(4-{[4-(trifluoromethyl)benzyl]amino}-1-piperidinyl)sulfonyl]-2-thienyl}methyl)-1,2-dihydro-3-pyridinecarboxamide], the melting point fell in the range of 288 to 289 °C.

As for `CCCCCCNC1CCN(S(=O)(=O)c2ccc(CNC(=O)c3ccc(Cl)cc3)s2)CC1` [Example 63, 4-Chloro-N-[(5-{[4-(hexylamino)piperidin-1-yl]sulfonyl}thien-2-yl)methyl]benzamide], the IC50 against GST-JNK3 was under 600 nM; at GST-JNK2, under 600 nM; at JNK1, 100 to 700 nM. Also, in data set [1], the “rescue rate of SCG cells” value is reported as 35%. In addition, the “inhibition of IFNγ production” value in the data set on Male C57BL/6 mice (1 mg/kg) came out at 65%. The “inhibition of TNFα production” value with Male C57BL/6 mice (10 mg/kg) was found to be 40%. Also, the solubility in the data set “Solubility in water” is at least 200 µg/mL.

Consider `CCCCNC1CCN(S(=O)(=O)c2ccc(CNC(=O)c3ccc(Cl)cc3)s2)CC1` [Example 68, 4-chloro-N-[(5-{[4-(butylamino)piperidin-1-yl]sulfonyl}thien-2-yl)methyl]benzamide], for which, in data set [2], the IC50 is under 800 nM. Besides, the “inhibition of global ischemia (% inhibition of total lesion)” value in data set [3] is listed as 64%.

In the case of `O=C(NCc1ccc(S(=O)(=O)N2CCC(NCc3ccc(C(F)(F)F)cc3)CC2)s1)c1ccc[nH]c1=O` [Example 198, 2-Oxo-N-({5-[(4-{[4-(trifluoromethyl)benzyl]amino}-1-piperidinyl)sulfonyl]-2-thienyl}methyl)-1,2-dihydro-3-pyridinecarboxamide], the IC50 at JNK1 was in the range of 100 to 700 nM. This molecule also gave a solubility in the data set “Solubility in water” of at least 200 µg/mL.
